Test results taken from patent US20240208968A1, “ALPHA V BETA 6 AND ALPHA V BETA 1 INTEGRIN INHIBITORS AND USES THEREOF” (DiCE Molecules SV, Inc., priority 2021, published 2024).
Counter-ions that a name gives are not always drawn.

Key:
αvβ6 = αvβ6 (Homo sapiens, UniProt P06756+P18564); assay: Solid Phase Integrin αvβ6 Assay; format: binding
Description: (§1) The compounds exemplified in this document were tested for their ability to inhibit αvβ1 and αvβ6 in below described solid phase integrin assays.
Solid Phase Integrin αvβ6 Assay
96-well microtiter plates (4 HBX Immulon; Thermo Fisher Scientific, Waltham, MA) were coated with 100 μL/well of 1 μg/mL recombinant TGFb1-LAP in TBS at 4° C., overnight. The coating solution was removed, and plates were blocked with 200 μL/well of blocking and binding buffer (2% BSA/TBST, 1 mM MnCl2) at room temperature for 1 hr. Blocking buffer was removed and 50 uL of binding buffer and testing compounds were added. 50 μL of diluted αvβ6 (0.2 μg/mL in binding buffer) was added to wells (100 uL/well total) and plates incubated for 1 hr at room temperature. Wells were washed thrice with washing buffer (TBS, 0.05% Tween, 1 mM MnCl2) and plates were incubated with 100 μL/well of a 1:12500) dilution of streptavidin-horseradish peroxidase conjugate (Thermo Fisher Scientific) in binding buffer for 20 min at room temperature. Bound protein was detected using the substrate TMB. The IC50 values for testing compounds were calculated by Levenberg-Marquardt four parameter fitting logistics.

αvβ1 = αvβ1 (Homo sapiens, UniProt P05556+P06756); assay: Solid Phase Integrin αvβ1 Assay; format: binding
Description: as §1
Solid Phase Integrin αvβ1 Assay
96-well microtiter plates (4 HBX Immulon; Thermo Fisher Scientific, Waltham, MA) were coated with 100 μL/well of 1 μg/mL recombinant TGFb1-LAP in TBS at 4° C., overnight. The coating solution was removed, and plates were blocked with 200 μL/well of blocking and binding buffer (2% BSA/TBST, 1 mM MnCl2) at room temperature for 1 hr. Blocking buffer was removed and 50 μL of binding buffer and testing compounds were added. 50 μL of diluted αvβ1 (0.2 ug/mL in binding buffer) was added to wells (100 μL/well total) for and plates incubated for 90 min at room temperature. Wells were washed thrice with washing buffer (TBS, 0.05% Tween, 1 mM MnCl2) and plates were incubated with 100 μL/well of a 1:12500 dilution of streptavidin-horseradish peroxidase conjugate (Thermo Fisher Scientific) in binding buffer for 20 min at room temperature. Bound protein was detected using the substrate TMB. The IC50 values for testing compounds were calculated by Levenberg-Marquardt four parameter fitting logistics.

Chain of αvβ6 (P06756 31-992 limits assumed): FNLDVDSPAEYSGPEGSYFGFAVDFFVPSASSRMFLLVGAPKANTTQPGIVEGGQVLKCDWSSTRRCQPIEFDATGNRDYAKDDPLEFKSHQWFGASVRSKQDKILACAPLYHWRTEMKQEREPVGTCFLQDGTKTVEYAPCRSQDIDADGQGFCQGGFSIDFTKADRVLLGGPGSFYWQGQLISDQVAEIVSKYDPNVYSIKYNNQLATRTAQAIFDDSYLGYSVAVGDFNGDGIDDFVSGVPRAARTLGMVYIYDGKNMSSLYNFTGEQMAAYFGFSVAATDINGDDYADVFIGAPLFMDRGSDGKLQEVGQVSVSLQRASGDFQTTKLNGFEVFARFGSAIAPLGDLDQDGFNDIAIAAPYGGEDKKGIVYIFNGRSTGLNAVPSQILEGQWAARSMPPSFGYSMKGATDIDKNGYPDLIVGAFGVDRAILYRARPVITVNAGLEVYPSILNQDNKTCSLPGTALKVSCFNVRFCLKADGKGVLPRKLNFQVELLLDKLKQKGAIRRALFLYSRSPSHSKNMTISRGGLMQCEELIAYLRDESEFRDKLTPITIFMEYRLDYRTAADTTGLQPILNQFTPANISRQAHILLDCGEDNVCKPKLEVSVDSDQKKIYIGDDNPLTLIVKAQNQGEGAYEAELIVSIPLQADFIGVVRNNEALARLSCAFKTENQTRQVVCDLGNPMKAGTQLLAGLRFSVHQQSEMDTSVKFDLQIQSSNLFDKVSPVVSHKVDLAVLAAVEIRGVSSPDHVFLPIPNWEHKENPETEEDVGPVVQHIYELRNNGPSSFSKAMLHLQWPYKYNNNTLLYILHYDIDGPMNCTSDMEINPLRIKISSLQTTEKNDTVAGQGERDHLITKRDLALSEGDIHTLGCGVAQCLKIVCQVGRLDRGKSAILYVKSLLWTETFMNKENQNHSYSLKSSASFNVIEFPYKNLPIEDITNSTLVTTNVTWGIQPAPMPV
Chain of αvβ6 (P18564 22-707 limits assumed): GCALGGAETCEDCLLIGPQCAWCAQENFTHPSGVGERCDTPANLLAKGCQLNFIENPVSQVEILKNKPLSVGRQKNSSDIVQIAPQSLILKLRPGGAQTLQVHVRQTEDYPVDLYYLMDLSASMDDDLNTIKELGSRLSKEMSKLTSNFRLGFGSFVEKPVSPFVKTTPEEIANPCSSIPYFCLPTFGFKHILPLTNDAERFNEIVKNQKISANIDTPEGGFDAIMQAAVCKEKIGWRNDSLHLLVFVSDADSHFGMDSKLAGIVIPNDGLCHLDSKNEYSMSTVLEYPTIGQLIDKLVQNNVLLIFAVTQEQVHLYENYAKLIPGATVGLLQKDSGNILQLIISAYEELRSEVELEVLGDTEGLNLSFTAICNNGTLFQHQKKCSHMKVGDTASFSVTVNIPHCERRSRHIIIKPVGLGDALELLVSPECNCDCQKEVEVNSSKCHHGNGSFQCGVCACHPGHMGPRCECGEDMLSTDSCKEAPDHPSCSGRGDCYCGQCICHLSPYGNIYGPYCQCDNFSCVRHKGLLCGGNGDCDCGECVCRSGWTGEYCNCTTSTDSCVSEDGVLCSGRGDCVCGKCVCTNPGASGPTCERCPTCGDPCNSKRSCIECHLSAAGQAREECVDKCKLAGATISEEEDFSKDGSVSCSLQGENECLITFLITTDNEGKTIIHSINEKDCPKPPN
Chain of αvβ1 (P06756 31-992 limits assumed): as the sequence (P06756 31-992 limits assumed) above
Chain of αvβ1 (P05556 21-728 limits assumed): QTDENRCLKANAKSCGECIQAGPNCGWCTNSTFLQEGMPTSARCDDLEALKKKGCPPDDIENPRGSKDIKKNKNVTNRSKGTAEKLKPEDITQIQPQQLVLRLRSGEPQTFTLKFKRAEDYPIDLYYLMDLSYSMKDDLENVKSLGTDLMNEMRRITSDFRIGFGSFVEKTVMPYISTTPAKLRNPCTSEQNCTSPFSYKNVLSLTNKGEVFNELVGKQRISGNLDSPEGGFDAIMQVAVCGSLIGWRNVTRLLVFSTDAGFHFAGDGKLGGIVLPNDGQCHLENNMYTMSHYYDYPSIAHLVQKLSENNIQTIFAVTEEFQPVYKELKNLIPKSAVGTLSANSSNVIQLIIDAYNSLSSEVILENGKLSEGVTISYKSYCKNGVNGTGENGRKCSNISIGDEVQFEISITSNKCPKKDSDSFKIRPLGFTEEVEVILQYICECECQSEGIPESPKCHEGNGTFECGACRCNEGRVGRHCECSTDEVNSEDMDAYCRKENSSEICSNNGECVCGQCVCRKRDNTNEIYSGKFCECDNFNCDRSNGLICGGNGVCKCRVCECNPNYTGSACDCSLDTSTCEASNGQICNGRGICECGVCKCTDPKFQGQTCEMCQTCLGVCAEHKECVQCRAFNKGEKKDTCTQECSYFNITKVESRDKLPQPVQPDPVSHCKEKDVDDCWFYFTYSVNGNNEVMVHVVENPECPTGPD

SMILES | IC50 (αvβ6) [nM] | IC50 (αvβ1) [nM]
O=C(O)C[C@@H](NC(=O)[C@@H]1CCCN(CCCc2ccc3c(n2)NCCC3)C1)c1cccc(Oc2ccccc2)c1 [Compound 209-B, 3-(3-phenoxyphenyl)-3-((R)-1-(3-(5,6,7,8-tetrahydro-1,8-naphthyridin-2-yl)propyl)piperidine-3-carboxamido)propanoic acid] | 100 to 1000 | > 1000
COc1ccc(C(C)C)c(C(CC(=O)O)NC(=O)[C@@H]2CCCN(CCCc3ccc4c(n3)NCCC4)C2)c1 (stereo partly drawn) [Compound 210, 3-(2-isopropyl-5-methoxyphenyl)-3-((R)-1-(3-(5,6,7,8-tetrahydro-1,8-naphthyridin-2-yl)propyl)piperidine-3-carboxamido)propanoic acid hydrochloride] | 100 to 1000 | 100 to 1000
O=C(O)C[C@H](NC(=O)[C@@H]1CCCN(CCCc2ccc3c(n2)NCCC3)C1)c1cccc2c1CCC2 [Compound 211-A, 3-(2,3-dihydro-1H-inden-4-yl)-3-((R)-1-(3-(5,6,7,8-tetrahydro-1,8-naphthyridin-2-yl)propyl)piperidine-3-carboxamido)propanoic acid] | < 100 | < 100
O=C(O)C[C@@H](NC(=O)[C@@H]1CCCN(CCCc2ccc3c(n2)NCCC3)C1)c1cccc2c1CCC2 [Compound 211-B, 3-(2,3-dihydro-1H-inden-4-yl)-3-((R)-1-(3-(5,6,7,8-tetrahydro-1,8-naphthyridin-2-yl)propyl)piperidine-3-carboxamido)propanoic acid] | 100 to 1000 | > 1000
O=C(O)C[C@H](NC(=O)[C@@H]1CCCN(CCCc2ccc3c(n2)NCCC3)C1)c1cccc2c1CCCC2 [Compound 212-A, 3-((R)-1-(3-(5,6,7,8-tetrahydro-1,8-naphthyridin-2-yl)propyl)piperidine-3-carboxamido)-3-(5,6,7,8-tetrahydronaphthalen-1-yl)propanoic acid] | > 1000 | > 1000
O=C(O)C[C@@H](NC(=O)[C@@H]1CCCN(CCCc2ccc3c(n2)NCCC3)C1)c1cccc2c1CCCC2 [Compound 212-B, 3-((R)-1-(3-(5,6,7,8-tetrahydro-1,8-naphthyridin-2-yl)propyl)piperidine-3-carboxamido)-3-(5,6,7,8-tetrahydronaphthalen-1-yl)propanoic acid] | < 100 | 100 to 1000
O=C(O)CC(NC(=O)[C@@H]1CCCN(CCCc2ccc3c(n2)NCCC3)C1)c1ccc2c(c1)CCO2 (stereo partly drawn) [Compound 213, 3-(2,3-dihydrobenzofuran-5-yl)-3-((R)-1-(3-(5,6,7,8-tetrahydro-1,8-naphthyridin-2-yl)propyl)piperidine-3-carboxamido)propanoic acid hydrochloride] | < 100 | < 100
O=C(O)C[C@H](NC(=O)[C@@H]1CCCN(CCCc2ccc3c(n2)NCCC3)C1)c1ccc2c(c1)OCO2 [Compound 214, (S)-3-(benzo[d][1,3]dioxol-5-yl)-3-((R)-1-(3-(5,6,7,8-tetrahydro-1,8-naphthyridin-2-yl)propyl)piperidine-3-carboxamido)propanoic acid] | < 100 | < 100
O=C(O)C[C@H](NC(=O)[C@@H]1CCCN(CCCc2ccc3c(n2)NCCC3)C1)c1ccc2nccnc2c1 [Compound 215-A, 3-(quinoxalin-6-yl)-3-((R)-1-(3-(5,6,7,8-tetrahydro-1,8-naphthyridin-2-yl)propyl)piperidine-3-carboxamido)propanoic acid] | < 100 | < 100
O=C(O)C[C@@H](NC(=O)[C@@H]1CCCN(CCCc2ccc3c(n2)NCCC3)C1)c1ccc2nccnc2c1 [Compound 215-B, 3-(quinoxalin-6-yl)-3-((R)-1-(3-(5,6,7,8-tetrahydro-1,8-naphthyridin-2-yl)propyl)piperidine-3-carboxamido)propanoic acid] | < 100 | < 100
O=C(O)C[C@H](NC(=O)[C@@H]1CCCN(CCCc2ccc3c(n2)NCCC3)C1)c1cccc2c1CCCO2 [Compound 216-A, 3-(chroman-5-yl)-3-((R)-1-(3-(5,6,7,8-tetrahydro-1,8-naphthyridin-2-yl)propyl)piperidine-3-carboxamido)propanoic acid] | < 100 | 100 to 1000
O=C(O)C[C@@H](NC(=O)[C@@H]1CCCN(CCCc2ccc3c(n2)NCCC3)C1)c1cccc2c1CCCO2 [Compound 216-B, 3-(chroman-5-yl)-3-((R)-1-(3-(5,6,7,8-tetrahydro-1,8-naphthyridin-2-yl)propyl)piperidine-3-carboxamido)propanoic acid] | > 1000 | > 1000
O=C(O)CC(NC(=O)[C@@H]1CCCN(CCCc2ccc3c(n2)NCCC3)C1)c1ccc2c(c1)OCC2 (stereo partly drawn) [Compound 217, 3-(2,3-dihydrobenzofuran-6-yl)-3-((R)-1-(3-(5,6,7,8-tetrahydro-1,8-naphthyridin-2-yl)propyl)piperidine-3-carboxamido)propanoic acid hydrochloride] | < 100 | < 100
O=C(O)CC(NC(=O)[C@@H]1CCCN(CCCc2ccc3c(n2)NCCC3)C1)c1cccc2c1OCO2 (stereo partly drawn) [Compound 218, 3-(benzo[d][1,3]dioxol-4-yl-3-((R)-1-(3-(5,6,7,8-tetrahydro-1,8-naphthyridin-2-yl)propyl)piperidine-3-carboxamido)propanoic acid hydrochloride] | < 100 | < 100
O=C(O)CC(NC(=O)[C@@H]1CCCN(CCCc2ccc3c(n2)NCCC3)C1)c1cccc2c1CCO2 (stereo partly drawn) [Compound 219, 3-(2,3-dihydrobenzofuran-4-yl)-3-((R)-1-(3-(5,6,7,8-tetrahydro-1,8-naphthyridin-2-yl)propyl)piperidine-3-carboxamido)propanoic acid hydrochloride] | < 100 | < 100
O=C(O)C[C@H](NC(=O)[C@@H]1CCCN(CCCc2ccc3c(n2)NCCC3)C1)c1cc(Cl)cc(Cl)c1 [Compound 220, (S)-3-(3,5-dichlorophenyl)-3-((R)-1-(3-(5,6,7,8-tetrahydro-1,8-naphthyridin-2-yl)propyl)piperidine-3-carboxamido)propanoic acid] | < 100 | < 100
COc1ccc([C@H](CC(=O)O)NC(=O)[C@@H]2CCCN(CCCc3ccc4c(n3)NCCC4)C2)cn1 [Compound 221, (S)-3-(6-methoxypyridin-3-yl)-3-((R)-1-(3-(5,6,7,8-tetrahydro-1,8-naphthyridin-2-yl)propyl)piperidine-3-carboxamido)propanoic acid hydrochloride] | < 100 | < 100
O=C(O)CC(NC(=O)[C@@H]1CCCN(CCCc2ccc3c(n2)NCCC3)C1)c1cc(Cl)cc(C(F)(F)F)c1 (stereo partly drawn) [Compound 222, 3-(3-chloro-5-(trifluoromethyl)phenyl)-3-((R)-1-(3-(5,6,7,8-tetrahydro-1,8-naphthyridin-2-yl)propyl)piperidine-3-carboxamido)propanoic acid hydrochloride] | < 100 | < 100
O=C(O)CC(NC(=O)[C@@H]1CCCN(CCCc2ccc3c(n2)NCCC3)C1)c1cc(C(F)(F)F)cc(C(F)(F)F)c1 (stereo partly drawn) [Compound 223, 3-(3,5-bis(trifluoromethyl)phenyl)-3-((R)-1-(3-(5,6,7,8-tetrahydro-1,8-naphthyridin-2-yl)propyl)piperidine-3-carboxamido)propanoic acid formic acid] | < 100 | < 100
